# Results from patent US6413974B1, “6,9,-disubstituted 2-[trans-(4-aminocyclohexyl) amino] purines” (Aventis Pharmaceuticals Inc., priority 1998, dated 2002).
# Values joined by “and” are separate entries in the source; they are usually repeats but may differ in a detail not shown here. Equal entries are not always repeated. Structures can show the parent of a compound that is named as a salt. Where two headings read alike, the source gives them in different places.
# What was measured:
# cdk2/cyclin E = biological target: T1, cdk2/cyclin E (Homo sapiens, UniProt P24941); assay: Cyclin-Dependent Kinase 2 Assay (cdk-2 inhibition); format: biochemical; conditions: GST-Rb substrate, 30 min at 30° C.
# T1 construct: made in house; host or cells: insect cells (baculovirus co-infection)
# Experimental: (§1) The transformed bacteria were grown overnight to saturation, then diluted in YT broth and incubated at 37° C. for 2 h. The protein was induced by incubation with 0.1 mM isopropylthioglycoside for 3 h. Following sedimentation by centrifugation, the cells were lysed by sonication in STE buffer ([…] NaCl, 10 mM Tris, pH 8.0, 1 mM EDTA) containing 10% sarkosyl. Particulate matter was removed by centrifugation and the lysate was incubated with glutathione-Sepharose at 4° C. The beads were washed with kinase buffer and then quantitation of Coomassie blue-stained proteins separated by SDS-PAGE was performed using a protein standard of known concentration.
# (§2) Pre-wet Millipore Multiscreen 96-well filter plates (0.65 μm Durapore filters) with 200 μl kinase buffer (50 mM HEPES, pH 7.5, 10 mM MgCl2, 1 mM EGTA). GST-Rb (0.5 μg) bound to glutathione-Sepharose beads is added in 50 μl per well and the solution removed by application of vacuum. […] Add 0.1 μg cdk4/cyclin D1 (insect cell lysate) to initiate assay. Incubate 30 min at 37° C. Terminate reaction by filtration on Millipore Vacuum Manifold. Wash four times with TNEN (20 mM Tris, pH 8.0, 100 mM Na Cl, 1 mM EDTA, 0.5% nonidet P-40). After drying the plates at room temperature, the filter plates were placed in adapter plates (Packard) and 40 μl of Microscint-O® (Packard) was added to each well. Top Seal A film was used to cover the plates before counting in a Top Count Scintillation Counter.
# GST-Rb as described above for cdk4/cyclin D1
# Assay conditions for cdk2/cyclin E were identical to those for cdk4/cyclin D1 including the substrate. The concentration of recombinant cdk2/cyclin E in the assay was 0.1 μg per 100 μl assay. Incubation was for 30 min at 30° C.
# cdk4/cyclin D1 = biological target: T2, cdk4/cyclin D1 (Homo sapiens, UniProt P11802); assay: Cyclin-dependent kinase 4 Assay; format: biochemical; conditions: cdk4/cyclin D1, GST-Rb substrate, 10 μM ATP, 30 min at 37° C.; read-out: CDK4 Inhibition IC50
# T2 construct: made in house; host or cells: Sf9 insect cells (Bac-to-Bac baculovirus, pFastBac)
# T2 sequence (P11802 whole entry): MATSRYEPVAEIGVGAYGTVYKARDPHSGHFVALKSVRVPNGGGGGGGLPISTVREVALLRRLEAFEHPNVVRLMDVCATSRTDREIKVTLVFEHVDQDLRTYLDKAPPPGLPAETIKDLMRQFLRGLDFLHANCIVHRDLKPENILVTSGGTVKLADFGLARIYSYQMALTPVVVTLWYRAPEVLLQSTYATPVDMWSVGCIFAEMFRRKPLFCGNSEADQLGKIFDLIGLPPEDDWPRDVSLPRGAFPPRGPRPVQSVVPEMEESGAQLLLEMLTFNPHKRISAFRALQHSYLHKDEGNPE
# T2 sequence (P24385 whole entry partner): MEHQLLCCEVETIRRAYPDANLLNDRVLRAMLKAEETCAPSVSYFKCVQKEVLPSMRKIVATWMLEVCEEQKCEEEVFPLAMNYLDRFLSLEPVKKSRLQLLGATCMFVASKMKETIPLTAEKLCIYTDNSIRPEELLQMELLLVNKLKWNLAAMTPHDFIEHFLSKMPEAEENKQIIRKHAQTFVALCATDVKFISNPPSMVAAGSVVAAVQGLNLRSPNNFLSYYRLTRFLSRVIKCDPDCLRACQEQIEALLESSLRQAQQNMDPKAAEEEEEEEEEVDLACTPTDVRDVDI
# Experimental: The IC50 values for cdk-4 inhibition were by the following method:
# as §1
# The cDNA for human cyclin D1 was cloned by RT PCR using […] from MCF-7 cells. […] Bacmid DNA was used to transfect Sf9 insect cells to produce recombinant virus. Following plaque purification of the virus, the viral preparations were amplified until high titer stocks were acheived.
# Lysates were prepared by lysis of Sf9 cells coinfected with cdk4 and cyclin D1 in 50 mM HEPES, pH 7.5, 10 mM MgCl2, 1 mM DTT, 0.1 mM phenylmethylsulfonyl fluoride, 5 μg/ml aprotinin, and 5 μg/ml leupeptin using a PARR bomb under 500 p.s.i nitrogen pressure for 5 min at 4° C. Insoluble material was sedimented at 10,000×g for 20 min at 4° C. Glycerol was added to the supernatant to 10% and stored at −80° C. in aliquots.
# as §2
# MDA-MB-231 = assay: In vitro tumor cell proliferation, MDA-MB-231; format: cell-based, human; conditions: read-out: In vitro Tumor Cell Proliferation (IC50, μM) Breast MDA-MB-231
# Experimental: (§3) The proliferation of tumor cells was measured using a sulforhodamine B assay as described in Skehan, P., et al., J. Natl. Cancer Inst. […] Tumor cells were harvested with trypsin-EDTA, cells that excluded trypan blue were counted, added to 96-well plates and incubated overnight at 37° C. Drug was added to the wells following dilution in culture medium. Three days later, the medium was removed and replenished with medium containing fresh drug and incubated an additional 4 days. The cells were then fixed with 0.1 ml 10% trichloroacetic acid for 60 min at 4° C. The plates were rinsed five times with tap water, air-dried and stained for 30 min with 0.4% sulforhodamine B in 1% acetic acid and air-dried.
# (§4) Alternatively, the CyQUANT cell proliferation assay was used to quantify tumor cell proliferation. Tumor cells were harvested with trypsin-EDTA, cells that excluded trypan blue were counted, added to 96-well plates and incubated overnight at 37° C. Drug was added to the wells following dilution in culture medium. Three days later the medium was removed and the plates frozen at −80° C. for at least 30 minutes.
# Colo-205 = assay: In vitro tumor cell proliferation, Colo-205; format: cell-based, human; conditions: read-out: In vitro Tumor Cell Proliferation (IC50, μM) Colon Colo-205
# Experimental: as §3, §4
# HT-29 = assay: In vitro tumor cell proliferation, HT-29; format: cell-based, human; conditions: read-out: In vitro Tumor Cell Proliferation (IC50, μM) Colon HT-29 (converted)
# Experimental: as §3, §4
# HT-29 is a human colon adenocarcinoma, moderately well-differentiated grade II (HTB 38);
# DMS-114 = assay: In vitro tumor cell proliferation, DMS-114; format: cell-based, human; conditions: read-out: In vitro Tumor Cell Proliferation (IC50, μM) Lung DMS-114
# Experimental: as §3, §4
# PC-3 = assay: In vitro tumor cell proliferation, PC-3; format: cell-based, human; conditions: read-out: In vitro Tumor Cell Proliferation (IC50, μM) Prostate PC-3
# Experimental: as §3, §4
# A549 = assay: In vitro tumor cell proliferation, A549; format: cell-based, human; conditions: read-out: In vitro Tumor Cell Proliferation (IC50, μM) Lung A549
# Experimental: as §3, §4
# DU 145 = assay: In vitro tumor cell proliferation, DU 145; format: cell-based, human; conditions: read-out: In vitro Tumor Cell Proliferation (IC50, μM) Prostate DUI45
# Experimental: as §3, §4
# MDA-MB-435 = assay: In vitro tumor cell proliferation, MDA-MB-435; format: cell-based, human; conditions: read-out: In vitro Tumor Cell Proliferation (IC50, μM) Breast MDA-MB-435
# Experimental: as §3, §4
# [1] = Homo sapiens, MDA-MB-231, values marked * (mark not explained)
# [2] = values marked * (mark not explained), trihydrochloride
# [3] = Homo sapiens, COLO 205, values marked * (mark not explained)
# [4] = Homo sapiens, HT-29, values marked * (mark not explained)
# [5] = Homo sapiens, DMS-114, values marked * (mark not explained)
# [6] = Homo sapiens, PC-3, values marked * (mark not explained)
# [7] = Homo sapiens, A549, values marked * (mark not explained)
# [8] = Homo sapiens, DU-145, values marked * (mark not explained)
# [9] = values marked * (mark not explained), dihydrochloride
# [10] = values without *, dihydrochloride
IC50 (cdk2/cyclin E),IC50 (cdk4/cyclin D1),IC50 (Colo-205; [3]),IC50 (HT-29; [4]),IC50 (DMS-114; [5]),IC50 (PC-3; [6]),IC50 (A549; [7]),IC50 (DU 145; [8]),IC50 (HT-29; [9]),IC50 (A549; [9]),SMILES,also measured
5100 nM,> 100000 nM,–,–,–,–,–,–,–,–,"N[C@H]1CC[C@H](Nc2nc(NCCc3ccc4c(c3)OCO4)c3ncn(C4CCCC4)c3n2)CC1 [Example 4, 2-[Trans-(4-aminocyclohexyl)amino]-6-[2-(3,4-methylenedioxyphenyl)ethylamino]-9-cyclopentylpurine dihydrochloride]",–
2600 nM,> 100000 nM,–,–,–,–,–,–,–,–,"C[C@H](Nc1nc(N[C@H]2CC[C@H](N)CC2)nc2c1ncn2C1CCCC1)c1ccccc1 [Example 6, (S)-2-[Trans-(4-aminocyclohexyl)amino]-6-[(α-methylbenzyl)amino]-9-cyclopentylpurine dihydrochloride]",–
110 nM,3200 nM and 4200 nM,5.3 µM,11 µM,8.8 µM,7.2 µM,7.9 µM,6.7 µM,–,–,"N[C@H]1CC[C@H](Nc2nc(NCCN3CCOCC3)c3ncn(C4CCCC4)c3n2)CC1 [Example 13, 2-[Trans-(4-aminocyclohexyl)amino]-6-[2-(4-morpholinyl)ethylamino]-9-cyclopentylpurine trihydrochloride]",IC50 (MDA-MB-231; [1]): 4.8 µM; IC50 (MDA-MB-231; [2]): 9.4 µM; IC50 (Colo-205; [2]): 5.2 µM; IC50 (DMS-114; [2]): 6.2 µM; IC50 (PC-3; [2]): 6.4 µM; IC50 (A549; [2]): 6.9 µM; IC50 (DU 145; [2]): 7.5 µM
100 nM,1500 nM,2.4 µM,2.7 µM,1.3 µM,2.3 µM,1.4 µM,2.8 µM,–,–,"CC(C)n1cnc2c(NCc3cccc(Cl)c3)nc(N[C@H]3CC[C@H](N)CC3)nc21 [Example 15, 2-[Trans-(4-aminocyclohexyl)amino]-6-[(3-chloro)benzylamino]-9-(2-propyl)purine dihydrochloride]",IC50 (MDA-MB-231; [1]): 3 µM
120 nM and 100 nM,1300 nM and 1000 nM,–,2.4 µM,–,–,1.7 µM,–,2.5 µM and 4.1 µM,2.2 µM and 1.8 µM,"N[C@H]1CC[C@H](Nc2nc(NCc3ccccc3Cl)c3ncn(C4CCCC4)c3n2)CC1 [Example 18, 2-[Trans-(4-aminocyclohexyl)amino]-6-[(2-chlorobenzyl)amino]-9-cyclopentylpurine dihydrochloride]","IC50 (MDA-MB-435; Homo sapiens, MDA-MB-435, values marked * (mark not explained)): 8 µM; IC50 (MDA-MB-435; [9]): 8.2 µM"
14 nM and 26 nM and 6 nM,180 nM,2.1 µM,1.5 µM,0.7 µM,0.9 µM,1.2 µM,0.8 µM,2.1 µM,1.8 µM,"CCNc1nc(N[C@H]2CC[C@H](N)CC2)nc2c1ncn2C1CCCC1 [Example 33, 2-[Trans-(4-aminocyclohexyl)amino]-6-(ethylamino)-9-cyclopentylpurine dihydrochloride]",IC50 (DMS-114; [9]): 0.9 µM; IC50 (PC-3; [9]): 1 µM
19 nM,1400 nM,2.4 µM,2.1 µM,1.2 µM,1.4 µM,1.7 µM,–,3.6 µM,1.1 µM,"N[C@H]1CC[C@H](Nc2nc(NCc3ccco3)c3ncn(C4CCCC4)c3n2)CC1 [Example 38, 2-[Trans-(4-aminocyclohexyl)amino]-6-(2-furanmethylamino)-9-cyclopentylpurine dihydrochloride]",IC50 (Colo-205; [9]): 2.8 µM; IC50 (PC-3; [9]): 1.7 µM
420 nM,1000 nM and 6000 nM,–,–,–,–,–,–,–,–,"N[C@H]1CC[C@H](Nc2nc(NCc3ccccc3F)c3ncn(C4CCCC4)c3n2)CC1 [Example 42, 2-[Trans-(4-aminocyclohexyl)amino]-6-[(2-fluorobenzyl)amino]-9-cyclopentylpurine dihydrochloride]","IC50 (MDA-MB-231; Homo sapiens, MDA-MB-231, values without *): 16 µM; IC50 (MDA-MB-231; [10]): 17 µM; IC50 (HT-29; Homo sapiens, HT-29, values without *): 15 µM; IC50 (DMS-114; Homo sapiens, DMS-114, values without *): 10 µM; IC50 (DMS-114; [10]): 5.1 µM; IC50 (PC-3; Homo sapiens, PC-3, values without *): 8.8 µM; IC50 (PC-3; [10]): 7.1 µM; IC50 (A549; Homo sapiens, A549, values without *): 7.1 µM; IC50 (DU 145; Homo sapiens, DU-145, values without *): 7.3 µM"
780 nM,2100 nM,–,–,–,–,–,–,–,–,"CC(C)n1cnc2c(NCc3cccc(I)c3)nc(N[C@H]3CC[C@H](N)CC3)nc21 [Example 51, 2-[Trans-(4-aminocyclohexyl)amino]-6-[(3-iodobenzyl)amino]-9-(2-propyl)purine dihydrochloride]",–
